Data published in the OPERA property sets (Mansouri et al. 2018).
In brackets after ≈: the same amount, converted by molar mass.

Details: not given

SMILES | solubility
CN(C)C(=O)OC1=CC(=O)CC(C)(C)C1 | 142 mM (≈ 30 mg/mL)
c1ccc2c3c(ccc2c1)-c1cccc2cccc-3c12 | 9.91e-06 mM (≈ 2.5e-06 mg/mL)
c1ccc(N=NNc2ccccc2)cc1 | 2.54 mM (≈ 0.5 mg/mL)
S=c1[nH]cnc2[nH]cnc12 | 450 mM (≈ 68.5 mg/mL)
Cc1cc(C)c(C)c(C)c1C | 0.105 mM (≈ 0.0155 mg/mL)
CN(C)c1ccc(C(=O)O)cc1 | 0.4 mM (≈ 0.0661 mg/mL)
CCCCOc1ccc(C(=O)OCCN(CC)CC)cc1 | 0.13 mM (≈ 0.0381 mg/mL)
O=C1C=CC(=C(c2ccc(O)cc2)c2ccc(O)cc2)C=C1 | 4.13 mM (≈ 1.2 mg/mL)
NCCNCCNCCNCCN | 34500 mM (≈ 6540 mg/mL)

Same assay, conditions: 20 °C

SMILES | solubility
COc1ccc(C=O)c(C(=O)O)c1OC | 11.9 mM (≈ 2.5 mg/mL)
CC(CCl)OC(C)CCl (stereo not drawn) | 9.94 mM (≈ 1.7 mg/mL)
Oc1ccc2c(c1)CCCC2 | 10.1 mM (≈ 1.5 mg/mL)
O=[N+]([O-])c1cc(Cl)c(Cl)c(Cl)c1Cl | 0.028 mM (≈ 0.0073 mg/mL)
CSc1nc(N=[N+]=[N-])nc(NC(C)C)n1 | 0.244 mM (≈ 0.055 mg/mL)
Cc1ccc(Cl)cc1 | 0.837 mM (≈ 0.106 mg/mL)
CC(C)Cl | 39.5 mM (≈ 3.1 mg/mL)
CCCCI | 1.1 mM (≈ 0.202 mg/mL)
COc1ccc2c3c1O[C@H]1[C@@H](O)C=C[C@H]4[C@@H](C2)N(C)CC[C@@]341 | 30.1 mM (≈ 9 mg/mL)
CCC(Cl)(Cl)[N+](=O)[O-] | 31.7 mM (≈ 5 mg/mL)
CNc1ccccc1C(=O)O | 1.32 mM (≈ 0.2 mg/mL)
C[C@H](CCC(=O)NCC(=O)O)[C@H]1CC[C@H]2[C@@H]3[C@H](O)C[C@@H]4C[C@H](O)CC[C@]4(C)[C@H]3C[C@H](O)[C@]12C | 0.00709 mM (≈ 0.0033 mg/mL)
CC(Cl)[N+](=O)[O-] (stereo not drawn) | 36.5 mM (≈ 4 mg/mL)
CCCCOC(=O)CCC | 3.47 mM (≈ 0.5 mg/mL)
CCCI | 6.3 mM (≈ 1.07 mg/mL)
Nc1cnn(-c2ccccc2)c(=O)c1Br | 0.752 mM (≈ 0.2 mg/mL)
O=C1C[C@@H](c2ccc(O)c(O)c2)Oc2cc(O)cc(O)c21 | 0.243 mM (≈ 0.07 mg/mL)
O=c1[nH]c(=O)c2[nH]c(=O)[nH]c2[nH]1 | 0.353 mM (≈ 0.0593 mg/mL)
OCCCBr | 1020 mM (≈ 142 mg/mL)
Clc1cccc(-c2ccccc2Cl)c1 | 0.0026 mM (≈ 0.00058 mg/mL)
COc1ccc(C(=O)c2cccc(C)c2)cc1C | 0.00832 mM (≈ 0.002 mg/mL)
O=C(O)CCCCCCCCCCC(=O)O | 0.174 mM (≈ 0.04 mg/mL)
CCCCOCCOC(C)=O | 56.2 mM (≈ 9 mg/mL)
N[C@H](CCCC(=O)O)C(=O)O | 13.7 mM (≈ 2.2 mg/mL)
CC(=O)CC1CCCCN1 (stereo not drawn) | 354 mM (≈ 50 mg/mL)
CCC(C)OC(C)=O (stereo not drawn) | 53.4 mM (≈ 6.2 mg/mL)

Same assay, conditions: 21 °C

SMILES | solubility
C=C1c2cccc(O)c2C(=O)C2=C(O)[C@]3(O)C(=O)C(C(N)=O)=C(O)[C@@H](N(C)C)[C@@H]3[C@@H](O)[C@H]12 | 17.1 mM (≈ 7.55 mg/mL)

Same assay, conditions: 22 °C

SMILES | solubility
CCOP(=S)(OCC)N1C(=O)c2ccccc2C1=O | 0.444 mM (≈ 0.133 mg/mL)

Same assay, conditions: 23 °C

SMILES | solubility
O=C(O)[C@@H](CO)c1ccccc1 | 119 mM (≈ 19.8 mg/mL)

Same assay, conditions: 24 °C

SMILES | solubility
CC=CCCCC | 0.153 mM (≈ 0.015 mg/mL)
CC(C)CC(=O)CC(C)C | 18.6 mM (≈ 2.64 mg/mL)
CN1CCCC(CN2c3ccccc3Sc3ccccc32)C1 (stereo not drawn) | 0.018 mM (≈ 0.00559 mg/mL)

Same assay, conditions: 25 °C

SMILES | solubility
CCCCCCOC(C)=O | 3.54 mM (≈ 0.511 mg/mL)
N#CNC(=N)N | 491 mM (≈ 41.3 mg/mL)
O=[N+]([O-])c1ccccc1O | 18 mM (≈ 2.5 mg/mL)
Clc1cc(-c2cc(Cl)c(Cl)c(Cl)c2Cl)c(Cl)c(Cl)c1Cl | 6.33e-07 mM (≈ 2.72e-07 mg/mL)
CSCCC(N)C(=O)O (racemic) | 331 mM (≈ 49.3 mg/mL)
Cc1cc(=O)[nH]c(=S)[nH]1 | 3.75 mM (≈ 0.533 mg/mL)
O=C(O)c1cc(=O)cc(C(=O)O)o1 | 77.7 mM (≈ 14.3 mg/mL)
O=C1NC(=O)C([N+](=O)[O-])C(=O)N1 | 5.2 mM (≈ 0.9 mg/mL)
Oc1ccc(-c2ccccc2)cc1 | 0.33 mM (≈ 0.0562 mg/mL)
CCOP(=S)(OCC)O/N=C(\C#N)c1ccccc1 | 0.0179 mM (≈ 0.00535 mg/mL)
Clc1cc(Cl)c(-c2c(Cl)cc(Cl)cc2Cl)c(Cl)c1 | 1.13e-06 mM (≈ 4.08e-07 mg/mL)
CC=CC(C)O (stereo not drawn) | 1040 mM (≈ 89.2 mg/mL)
CCCCCCCI | 0.0155 mM (≈ 0.0035 mg/mL)
NS(=O)(=O)c1cc2c(cc1C(F)(F)F)NC(Cc1ccccc1)NS2(=O)=O (stereo not drawn) | 0.256 mM (≈ 0.108 mg/mL)
Cc1ccc(C)nc1 | 1530 mM (≈ 164 mg/mL)
CCCCCCc1ccccc1 | 0.00556 mM (≈ 0.000902 mg/mL)
C=CCCCC=C | 0.458 mM (≈ 0.044 mg/mL)
O=C(O)c1ccc([N+](=O)[O-])cc1[N+](=O)[O-] | 85.8 mM (≈ 18.2 mg/mL)
CCCCCCCCN | 1.55 mM (≈ 0.2 mg/mL)
CCOC(=O)CC#N | 177 mM (≈ 20 mg/mL)

SMILES | solubility
Clc1cccc2c1Oc1ccccc1O2 | 0.00191 mM (≈ 0.000417 mg/mL)
CCCC(C)=O | 499 mM (≈ 43 mg/mL)
C=CCCBr | 5.66 mM (≈ 0.764 mg/mL)
Cc1cccc2c(C)cccc12 | 0.0175 mM (≈ 0.00274 mg/mL)
Clc1ccc(-c2cccc(Cl)c2)cc1 | 0.000398 mM (≈ 8.88e-05 mg/mL)
Clc1cc(-c2ccccc2)c(Cl)c(Cl)c1Cl | 4.8e-05 mM (≈ 1.4e-05 mg/mL)
c1ccc2c(c1)OCCOCCOc1ccccc1OCCOCCO2 | 0.0203 mM (≈ 0.0073 mg/mL)
COc1ccc(C=O)cc1 | 31.5 mM (≈ 4.29 mg/mL)
CCc1ccc2ccccc2c1 | 0.0513 mM (≈ 0.00801 mg/mL)
CCCCP(=O)(CCCC)CCCC | 255 mM (≈ 55.7 mg/mL)
CCn1cc(C(=O)O)c(=O)c2cnc(N3CCNCC3)nc21 | 1.06 mM (≈ 0.322 mg/mL)
Cc1cccc(C)c1NC(=O)c1cc(S(N)(=O)=O)c(Cl)cc1O | 0.163 mM (≈ 0.058 mg/mL)
CCCCCCC | 0.0339 mM (≈ 0.0034 mg/mL)
Clc1ccc(Cl)c(-c2ccccc2)c1 | 0.00502 mM (≈ 0.00112 mg/mL)
CCCCCCCCCCCCCCCCCC | 2.36e-05 mM (≈ 6e-06 mg/mL)
O=C(O)c1cccc(Br)c1 | 2 mM (≈ 0.402 mg/mL)
Cc1cc(C)c2ccccc2n1 | 11.4 mM (≈ 1.79 mg/mL)
CC(C)OC(C)(C)C | 4.3 mM (≈ 0.5 mg/mL)
CCCC(=O)CC | 147 mM (≈ 14.7 mg/mL)
Cc1ccc(-c2ccccc2)cc1 | 0.0241 mM (≈ 0.00405 mg/mL)

SMILES | solubility
Cc1ccnc2c1ccc1c(C)ccnc12 | 0.107 mM (≈ 0.0224 mg/mL)
CC(C)(C)CO | 397 mM (≈ 35 mg/mL)
CC(C)(C)C(=O)C1C(=O)c2ccccc2C1=O | 0.0782 mM (≈ 0.018 mg/mL)
O=C(O)c1ccccc1C(=O)Nc1cccc2ccccc12 | 0.687 mM (≈ 0.2 mg/mL)
c1ccc2c(c1)Nc1ccccc1S2 | 0.00798 mM (≈ 0.00159 mg/mL)
Clc1cc(Cl)c(Cl)c(-c2c(Cl)c(Cl)cc(Cl)c2Cl)c1Cl | 3.42e-07 mM (≈ 1.47e-07 mg/mL)
CCc1cccc2ccccc12 | 0.0685 mM (≈ 0.0107 mg/mL)
CC1CCCCC1 | 0.152 mM (≈ 0.015 mg/mL)
COC1=CC(=O)C[C@@H](C)[C@]12Oc1c(Cl)c(OC)cc(OC)c1C2=O | 0.0245 mM (≈ 0.00864 mg/mL)
C=CCCC | 2.11 mM (≈ 0.148 mg/mL)
COc1ccc2c(c1)N(C[C@H](C)CN(C)C)c1ccccc1S2 | 0.0609 mM (≈ 0.02 mg/mL)
c1ccc2c(c1)Cc1c-2ccc2ccccc12 | 0.00021 mM (≈ 4.54e-05 mg/mL)
CCC(O)CC | 584 mM (≈ 51.5 mg/mL)
O=C(O)c1cccc([N+](=O)[O-])c1C(=O)O | 95.2 mM (≈ 20.1 mg/mL)
Fc1cccc(CCl)c1 | 2.86 mM (≈ 0.414 mg/mL)
CCC(O)C(C)(C)C (stereo not drawn) | 70.6 mM (≈ 8.2 mg/mL)
Cc1cc(=O)[nH]o1 | 858 mM (≈ 85 mg/mL)
COc1c2occc2c(OC)c2c(=O)cc(C)oc12 | 4 mM (≈ 1.04 mg/mL)

Same assay, conditions: 27 °C

SMILES | solubility
Cc1c(C)c2c3ccccc3ccc2c2ccccc12 | 9.75e-05 mM (≈ 2.5e-05 mg/mL)
C#C[C@]1(O)CC[C@H]2[C@@H]3CCc4cc(O)ccc4[C@H]3CC[C@@]21C | 0.0381 mM (≈ 0.0113 mg/mL)

Same assay, conditions: 28 °C

SMILES | solubility
CCOC(=O)[C@H](Cc1ccccc1)NC(C)=O | 17.6 mM (≈ 4.13 mg/mL)
CCOC(=O)[C@H](Cc1ccc(O)cc1)NC(C)=O | 13.8 mM (≈ 3.48 mg/mL)

Same assay, conditions: 30 °C

SMILES | solubility
COC(=O)[C@H]1[C@H]2C[C@@H]3c4[nH]c5cc(OC)ccc5c4CCN3C[C@H]2C[C@@H](OC(=O)c2cc(OC)c(OC)c(OC)c2)[C@@H]1OC | 0.12 mM (≈ 0.073 mg/mL)
COc1cnc(NS(=O)(=O)c2ccc(N)cc2)nc1 | 2.6 mM (≈ 0.73 mg/mL)
Cc1ccc(S(=O)(=O)NC(=O)NN2CCCCCC2)cc1 | 0.21 mM (≈ 0.0654 mg/mL)
C/C=C/C=C/C(=O)O | 22.3 mM (≈ 2.5 mg/mL)
CC(C)CCC[C@@H](C)[C@H]1CC[C@H]2[C@@H]3CC=C4C[C@@H](O)CC[C@]4(C)[C@H]3CC[C@]12C | 0.000246 mM (≈ 9.5e-05 mg/mL)
CN=C(O)Oc1cccc(C)c1 | 15.7 mM (≈ 2.6 mg/mL)
NS(=O)(=O)c1cc2c(cc1Cl)N=CNS2(=O)=O | 0.899 mM (≈ 0.266 mg/mL)
COc1ccc([N+](=O)[O-])cc1 | 3.85 mM (≈ 0.59 mg/mL)
Cc1cccc([N+](=O)[O-])c1 | 3.65 mM (≈ 0.5 mg/mL)
COC(=O)c1ccccc1O | 48.6 mM (≈ 7.4 mg/mL)
